Where two headings read alike, the source gives them in different places.
Tests used:
[1] = test system: autochthonous rat prostate complex adenocarcinoma (ARPCA); experiment: Induced autochthonous rat prostate adenocarcinoma in L-W rats; assay type: in vivo; conditions: 15 mg/kg BW s.c. every other day for six doses
Procedure: To determine the effectiveness of Rh-123 on induced autochthonous rat prostate adenocarcinoma developed within the prostate gland and seminal vesicles of L-W rats, thirteen L-W rats were inoculated intravenously with acidified MNU (30 mg/kg of body weight (BW)). Following the single inoculation of MNU, the rats were each implanted subcutaneously with 50 mg TP sealed in a silastic tube. Three implants of TP were administered, each at intervals of 2 months. After a latent period of 4–6 months, small palpable tumors were detected in the abdomen. The rats were then administered Rh-123 (15 mg/kg BW) subcutaneously every other day for six doses. The Rh-123 was dissolved in a 5% (by volume) ethanol-5% (by weight) glucose solution in sterile water at a concentration of 5 mg/ml. The rats were sacrificed 1 week after the last dose of Rh-123 and their tissues were fixed in 10% formalin.

[2] = test system: transplantable tumor P-A III; conditions: cited from earlier work
[3] = test system: transplantable rat prostate tumor R3327-H (Dunning); conditions: saline suspension, s.c. every other day, 15 mg/kg body weight; cited from earlier work
[4] = test system: NPF non-tumorigenic diploid prostate fibroblast cells; experiment: MTT cytotoxicity/viability assay, NPF; assay type: cell-based, human
Description: (§1) Assays of Rh-123 toxicity were done with three human prostate cancer cell lines, […], et al.: Establishment and characterization of a human prostatic carcinoma cell line, Invest Urol 17:16-23, 1979), DU-145 (Stone […], et al.: Isolation of a human prostatic carcinoma cell line (DU145), Int J Cancer 21:274-281, 1978), and LNCaP (Horoszewitz J, Leong […], et al.: LNCaP model of human prostatic carcinoma, Cancer Res 43:1809-1818, 1983), and a non-tumorigenic diploid prostate fibroblast cell strain (NPF-209) derived in our laboratories from a normal adult prostate. The NPF cells were used as controls, i.e., for comparison. […] Two different in vitro assays were used to assess cell viability following Rh-123 treatment, namely, • i) colony formation by a clonal assay procedure ([…], Ham R G: Clonal growth of human keratinocytes with small amounts of dialyzed serum, In Vitro 16:526-538, 1980); and • ii) viability of cells determined by the MTT assay utilizing previously described techniques (Alley […], Monks A, et al.: Feasibility of drug screening with panels of human tumor cell lines using a microculture tetrazolium assay, Cancer Res 40:589-601, 1988). Cytotoxicity due to Rh-123 treatment was determined with the human prostate cancer cells grown in 96-well disposable microtiter plates. […] The OD540 nm reading is a measure of the number of viable cells present in the test sample. […]

[5] = test system: LNCaP prostate cancer cells; experiment: Clonogenic assay (colony growth), LNCaP; assay type: cell-based, human
Description: (§2) Assays of Rh-123 toxicity were done with three human prostate cancer cell lines, […], et al.: Establishment and characterization of a human prostatic carcinoma cell line, Invest Urol 17:16-23, 1979), DU-145 (Stone […], et al.: Isolation of a human prostatic carcinoma cell line (DU145), Int J Cancer 21:274-281, 1978), and LNCaP (Horoszewitz J, Leong […], et al.: LNCaP model of human prostatic carcinoma, Cancer Res 43:1809-1818, 1983), and a non-tumorigenic diploid prostate fibroblast cell strain (NPF-209) derived in our laboratories from a normal adult prostate. The NPF cells were used as controls, i.e., for comparison. […] Two different in vitro assays were used to assess cell viability following Rh-123 treatment, namely, • i) colony formation by a clonal assay procedure ([…], Ham R G: Clonal growth of human keratinocytes with small amounts of dialyzed serum, In Vitro 16:526-538, 1980); and • ii) viability of cells determined by the MTT assay utilizing previously described techniques (Alley […], Monks A, et al.: Feasibility of drug screening with panels of human tumor cell lines using a microculture tetrazolium assay, Cancer Res 40:589-601, 1988). Clonogenic potential of the treated human prostate cancer cells was determined on 24-hour-old cells seeded in 60 mm disposable dishes (1-2×10^2 cells/dish). […]

[6] = test system: PC-3 prostate cancer cells; experiment: MTT cytotoxicity/viability assay, PC-3; assay type: cell-based, human
Description: (§3) Assays of Rh-123 toxicity were done with three human prostate cancer cell lines, […], et al.: Establishment and characterization of a human prostatic carcinoma cell line, Invest Urol 17:16-23, 1979), DU-145 (Stone […], et al.: Isolation of a human prostatic carcinoma cell line (DU145), Int J Cancer 21:274-281, 1978), and LNCaP (Horoszewitz J, Leong […], et al.: LNCaP model of human prostatic carcinoma, Cancer Res 43:1809-1818, 1983), and a non-tumorigenic diploid prostate fibroblast cell strain (NPF-209) derived in our laboratories from a normal adult prostate. The NPF cells were used as controls, i.e., for comparison. The cells were maintained in disposable plastic culture vessels in a 1:1 mix of Dulbecco's modified Eagle's medium and Ham's F12 (DMEM/F12, from Sigma Chemical Co, St. Louis, Mo.) supplemented with 10% fetal bovine serum (FBS, from HyClone Labs, Inc., Logan, Utah). 3-[4,5-Dimethylthiazol-2-yl]-2,5-diphenyltetrazolium bromide (MTT), DMSO, and other chemicals were also obtained from Sigma. […] Two different in vitro assays were used to assess cell viability following Rh-123 treatment, namely, • i) colony formation by a clonal assay procedure ([…], Ham R G: Clonal growth of human keratinocytes with small amounts of dialyzed serum, In Vitro 16:526-538, 1980); and • ii) viability of cells determined by the MTT assay utilizing previously described techniques (Alley […], Monks A, et al.: Feasibility of drug screening with panels of human tumor cell lines using a microculture tetrazolium assay, Cancer Res 40:589-601, 1988). Cytotoxicity due to Rh-123 treatment was determined with the human prostate cancer cells grown in 96-well disposable microtiter plates. […] The plates were next read at A540 […] with an Emax precision microplate reader (Molecular Devices Corporation, Menlo Park, Calif.). […] The cell-bound dye is dissolved with DMSO and spectrophotometrically quantitated by absorbance at a wavelength of 540 nm. The OD540 nm reading is a measure of the number of viable cells present in the test sample. […]

[7] = test system: DU-145 prostate cancer cells; experiment: Clonogenic assay (colony growth), DU-145; assay type: cell-based, human
Description: as §2

[8] = test system: LNCaP prostate cancer cells; experiment: MTT cytotoxicity/viability assay, LNCaP; assay type: cell-based, human
Description: as §1

[9] = test system: PC-3 prostate cancer cells; experiment: Clonogenic assay (colony growth), PC-3; assay type: cell-based, human
Description: as §2

Swiss Webster mice = assay type: in vivo; conditions: s.c. every other day for 2 weeks
Procedure: The toxicity of two solvents for Rh-123, DMSO and alcohol-glucose, was studied in 60-day-old Swiss Webster mice (Simonsen Laboratories, Inc., Gilroy, Calif.). For each solvent there were five groups of five mice each, with the Rh-123 dose per group being 0, 2.0, 7.5, 15, and 20 mg/kg of body weight. A sixth group of five mice were not given any solvent or Rh-123. The solvents, with and without Rh-123, were administered at a concentration of 50% by volume DMSO in distilled water, and 5% alcohol by volume in a 5% by weight solution of glucose in distilled water. […] The concentration of Rh-123 was 5 mg/ml. Appropriate controls were utilized. The mice were injected subcutaneously every other day for 2 weeks.

[10] = test system: metastatic hormone-refractory prostate cancer; experiment: Phase I study: prostate specific acid phosphatase in blood after a single dose; assay type: in vivo, human; conditions: Patient 4, Level II (24 mg/m^2), single infusion
Procedure: The FDA has approved human clinical Phase I study of Rh-123. This phase evaluates the toxicity of Rh-123. The objective of the study is to determine safe dosing levels for Rh-123 starting at a level known to be safe for animals (about 0.3 mg/kg, which is equivalent to about 12 mg/m^2 for the typical prostate cancer patent), and proceeding upward in dosage until signs of moderate toxicity are observed. The Phase I study includes 21 volunteer patients with metastatic hormone-refractory prostate cancer to establish toxicity in a single dose escalation schedule. Only one dose per volunteer participant has been approved to date by the FDA, starting at 12 mg/m^2 at level I (three participants per level), and increasing in subsequent levels until dose-limiting toxicity is observed. Using a solution of four milligrams of Rh-123 per milliliter of a solution which includes 5% alcohol and 5% glucose in distilled water, the FDA has approved the dose escalation schedule shown in Table I: [table] As of the date of this application for patent, seven patients have been treated in accordance with the protocol described above.

[11] = test system: normal human adult prostate fibroblasts (NPF); experiment: Clonogenic assay (colony growth), NPF; assay type: cell-based
Description: as §2

[12] = test system: DU-145 prostate cancer cells; experiment: MTT cytotoxicity/viability assay, DU-145; assay type: cell-based, human
Description: as §3

COC(=O)c1ccccc1-c1c2ccc(=N)cc-2oc2cc(N)ccc12.Cl [Rh-123, methyl o-(6-amino-3-imino-3H-xanthen-9-yl) benzoate monohydrochloride]
effect on normal surrounding tissue [1]: no change
gross changes in the tumor mass of the prostate complex [1]: No gross changes
microscopic examination of tumor tissue of prostate complex ([1]; sacrificed 1 week after last dose): marked cellular and acinar destruction, pyknosis, cytoplasmic smearing, and intraepithelial cyst formation
effect on tumor cells ([2]; Rh-123 dissolved in DMSO): significant destruction of tumor cells
sensitivity of tumor to Rh-123 ([2]; Rh-123 dissolved in DMSO): highly sensitive
toxicity in normal cells ([2]; rat, in vivo): no toxicity noted
tumor growth after injection of tumor remnants into untreated susceptible L-W rats ([2]; remnants of Rh-123-treated tumor): no tumor growth
effect on tumor (histology) [3]: significant destructive alteration of the acinar cells
growth inhibition due to Rh-123 treatment ([4]; 0–80 μg/ml, FIG. 5): much less than that observed with tumorigenic cells
viability of cells ([4]; after prolonged Rh-123 exposures): remained relatively high
suppression of colony growth ([5]; 10 μg/ml for 72 hours): Complete suppression
colony growth ([5]; exposure to 10 μg/ml): greatly suppressed
recovery of treated cells in Rh-123-free normal growth medium ([6]; PC-3): poor
relative sensitivity to Rh-123 exposure among the cancer cell lines ([6]; PC-3): most sensitive
loss of viable cells ([6]; PC-3, exposed 2 days or longer, concentrations as low as 1.25–2 μg/ml): marked
suppression of colony growth ([7]; DU-145, 10 μg/ml for 72 hours): Complete suppression
growth suppression (colony growth) ([7]; DU-145, compared with PC-3 and LNCaP): less marked
recovery of treated cells in Rh-123-free normal growth medium [8]: poor
loss of viable cells ([8]; exposed 2 days or longer, concentrations as low as 1.25–2 μg/ml): marked
suppression of colony growth ([9]; PC-3, 10 μg/ml for 72 hours): Complete suppression
colony growth ([9]; PC-3, exposure to 10 μg/ml): greatly suppressed
mortality (Swiss Webster mice; 15 mg/kg Rh-123 in 50% DMSO, group of five mice): one of five mice died
mortality (Swiss Webster mice; 20 mg/kg Rh-123 in 50% DMSO, group of five mice): Three of five mice died
mortality (Swiss Webster mice; 20 mg/kg Rh-123 in alcohol-glucose solution): no mortality
course of prostate specific acid phosphatase in blood after 48 hours [10]: steadily decreased until two months after the infusion
maximal suppression of colony growth ([11]; 72-hour exposure): 28 % of control
suppression of colony growth ([11]; 72-hour exposure to 50 μg/ml (data not shown)): Total suppression was not achieved
recovery of treated cells in Rh-123-free normal growth medium ([12]; DU-145): poor
relative sensitivity to Rh-123 exposure among the cancer cell lines ([12]; DU-145): more refractory than either the PC-3 or the LNCaP cells
loss of viable cells ([12]; DU-145, exposed 2 days or longer, concentrations as low as 1.25–2 μg/ml): marked
